According to patent publication US20250152719A1, “FUSED IMIDE DERIVATIVE” (Chia Tai Tianqing Pharmaceutical Group Co., Ltd., priority 2021, published 2025):
Read-outs that look alike come from different tables or passages of the source.

Key:
[1] = system: TMD8-BTK(C481S) cells; assay: Inhibitory activity on TMD8-BTK(C481S) cell proliferation (CCK-8); assay type: cell-based; conditions: 72 h incubation
Procedure: (§1) TMD8-BTK(C481S) cells in a good growth state were collected and added to a centrifuge tube, adjusted to a cell density of 8×10^4 cells/mL, and seeded in a 96-well plate (100 μL/well). The cells were incubated overnight in a cell incubator. Compounds were added using a nanoliter pipettor such that the final concentrations of the compounds were 5000 nM-0.31 nM; the addition was performed in duplicate, and meanwhile, a control was set. After another 72 h of incubation in the cell incubator, 10 μL of CCK-8 (CK04, PP799) was added. After 4 h of incubation in the cell incubator, absorbance values were detected at 450 nm using an Envision microplate reader, the four-parameter analysis was performed, the dose-response curves were fit, and IC50 was calculated.

[2] = system: OCI-LY10 cells; assay: Inhibitory activity on OCI-LY10 cell proliferation (CCK-8); assay type: cell-based
Procedure: as §1, with “OCI-LY10 cells” for “TMD8-BTK(C481S) cells”, “of 1×10^5” for “of 8×10^4”, “After 2.5” for “After 4”

[3] = biological target: BTK (Homo sapiens (Human), UniProt Q06187); assay: BTK degradation in OCI-LY10 cells (Total-BTK HTRF kit); assay type: cell-based; conditions: 24 (or 6) h incubation; for DC50: DC50 = concentration when degradation rate reaches 50%, read-out: OCI-LY10 cell BTK degradation DC50; for Dmax / BTK degradation in OCI-LY10 cells Dmax: maximum degradation rate
Procedure: The detection was carried out using the Total-BTK Kits (cisbio, 63ADK064PEH), and 4× Supplemented Lysis buffer was prepared using the Blocking reagent stock solution (100×) and Lysis buffer stock solution (4×). Premixed antibody solutions were prepared using the Detection buffer, Total-BTK d2 antibody, and Total-BTK Eu Cryptate antibody.
OCI-LY10 cells in a good growth state were collected and added to a centrifuge tube, adjusted to a cell density of 4.17×10^6 cells/mL, and seeded in a 384-well plate (12 μL/well). The cells were incubated overnight in a cell incubator. Compounds were added using a nanoliter pipettor such that the final concentrations of the compounds were 100 nM-0.098 nM; the addition was performed in duplicate, and meanwhile, a control was set. After another 24 (or 6) h of incubation in the cell incubator, the 4× Supplemented Lysis buffer was added at 4 μL/well to lyse the cells. After the cells were shaken for 40 min at room temperature, the Premixed antibody solutions were added at 4 μL/well, and the cells were left to stand overnight at room temperature. Fluorescence values of the cells were detected at 665 nm/620 nm using an Envision microplate reader, the four-parameter analysis was performed, the dose-response curves were fit, and DC50 (the concentration of the drug when the degradation rate reaches 50%) and Dmax (the maximum degradation rate) were calculated.

[4] = Mouse pharmacokinetics; assay type: in vivo, ICR mice; conditions: for clearance / half-life / AUC / Cmax: ICR, mouse, plasma; for AUC: read-out: AUC; for Cmax: read-out: Cmax
Procedure: ICR mice weighing 18-22 g were randomized into groups of 9 after 3-5 days of acclimatization and then intragastrically given the test compound solution at a dose of 10 mg/kg. Plasma samples to be tested were prepared by taking blood from the orbit at time points of 15 min, 30 min, 1 h, 2 h, 3 h, 4 h, 6 h, 8 h, 10 h, and 24 h. 20 μL of each plasma sample to be detected and a standard curve sample were taken, and an acetonitrile solution containing an internal standard was added. […] Pharmacokinetic parameters were fitted using a non-compartmental model (see Table 5).

[5] = system: OCI-LY10-BTK(C481S) cells; assay: Inhibitory activity on OCI-LY10-BTK(C481S) cell proliferation (CCK-8); assay type: cell-based; conditions: 72 h incubation, IC50 per method, unit inferred
Procedure: OCI-LY10(C481S) cells in the logarithmic growth phase were collected and added to a centrifuge tube, adjusted to a cell density of 5×10^4 cells/mL, and seeded in a 96-well plate (100 μL/well). Meanwhile, compounds were added using a nanoliter pipettor such that the final concentrations of the compounds were 5000 nM-0.31 nM; the addition was performed in duplicate, and meanwhile, a control was set. After another 72 h of incubation in the cell incubator, the detection reagent CCK-8 (manufacturer: Dojindo Laboratories, Beijing; 10 μL/well) was added. After 3 h of incubation in the cell incubator, absorbance values were detected at 450 nm using a PerkinElmer Envision microplate reader, the four-parameter analysis was performed, the dose-response curves were fit, and IC50 was calculated.

[6] = Homo sapiens, OCI-Ly10, 72 h incubation
[7] = po, 10 mg/kg, Mouse i.g. 10 mpk

BTK, sequence (Q06187 whole entry): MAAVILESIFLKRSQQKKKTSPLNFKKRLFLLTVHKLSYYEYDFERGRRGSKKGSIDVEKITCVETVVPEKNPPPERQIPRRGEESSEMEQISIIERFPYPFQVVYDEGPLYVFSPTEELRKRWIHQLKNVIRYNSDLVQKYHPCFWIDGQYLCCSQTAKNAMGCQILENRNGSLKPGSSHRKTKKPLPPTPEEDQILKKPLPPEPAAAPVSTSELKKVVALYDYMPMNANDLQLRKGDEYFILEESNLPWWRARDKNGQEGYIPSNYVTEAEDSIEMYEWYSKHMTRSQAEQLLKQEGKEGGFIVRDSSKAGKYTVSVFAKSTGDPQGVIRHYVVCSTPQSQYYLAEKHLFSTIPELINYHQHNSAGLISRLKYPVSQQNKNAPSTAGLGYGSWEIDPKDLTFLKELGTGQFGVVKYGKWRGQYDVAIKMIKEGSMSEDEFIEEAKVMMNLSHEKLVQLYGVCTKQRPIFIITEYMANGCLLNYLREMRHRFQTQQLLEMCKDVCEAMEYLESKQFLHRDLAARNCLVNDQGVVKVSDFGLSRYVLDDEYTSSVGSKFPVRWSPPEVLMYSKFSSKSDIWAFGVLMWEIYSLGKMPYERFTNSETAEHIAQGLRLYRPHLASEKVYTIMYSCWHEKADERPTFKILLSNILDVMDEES

Row | SMILES | IC50 [2, 6] [nM] | Dmax ([3]; OCI-Ly10, OCI-LY10 cells) [%] | IC50 ([5]; 72 h) [nM] | also measured
1 | CN1CCN([C@@H]2CCCN(c3cnc(C(N)=O)c(Nc4ccc(C5CCN(CC6CN(c7ccc8c(C9CCC(=O)NC9=O)noc8c7)C6)CC5)cc4)n3)C2)C1=O (stereo partly shown) [Compound 9] | < 0.31 | 99 |  | IC50 ([1]; 72 h): 1.2 nM; DC50 ([3]; OCI-LY10 cells): < 0.098 nM; clearance ([4]; iv, 1 mg/kg, Mouse i.v. 1 mpk): 5.52 mL/min/kg; half-life ([4]; iv, 1 mg/kg, Mouse i.v. 1 mpk): 1.5 h; AUC ([4]; iv, 1 mg/kg, Mouse i.v. 1 mpk): 2970 ng·h/mL; half-life [4, 7]: 2.6 h; AUC [4, 7]: 13700 ng·h/mL; Cmax [4, 7]: 1390 ng/mL; F ([4]; Mouse i.g. 10 mpk): 46.10%
2 | CN1CCN([C@@H]2CCCN(c3cnc(C(N)=O)c(Nc4ccc(C5CCN(CC6CN(c7cc8onc(C9CCC(=O)NC9=O)c8c8ccccc78)C6)CC5)cc4)n3)C2)C1=O (stereo partly shown) [Compound 96] | < 0.31 | > 90 | 0.31 | 
3 | CN1CCN([C@@H]2CCCN(c3cnc(C(N)=O)c(Nc4ccc(C5CCN(C[C@@H]6CCC(n7ccc8c9c(C%10CCC(=O)NC%10=O)noc9ccc87)C6)CC5)cc4)n3)C2)C1=O (stereo partly shown) [Compound 15] |  |  |  | IC50 [5]: < 0.31 nM; IC50 ([2]; 72 h incubation): < 0.31 nM; DC50 ([3]; OCI-LY10 cells): < 0.098 nM; BTK degradation in OCI-LY10 cells Dmax ([3]; OCI-LY10 cells): 100%
4 | CN1CCN([C@@H]2CCCN(c3cnc(C(N)=O)c(Nc4ccc(N5CCC(N6CCc7c(ccc8c(C9CCC(=O)NC9=O)noc78)C6)CC5)cc4)n3)C2)C1=O (stereo partly shown) [Compound 35] | < 0.31 | > 90 | 0.12 | 
5 | CN1CCN([C@@H]2CCCN(c3cnc(C(N)=O)c(Nc4ccc(C5CCN(CC6Cc7ccc8c(C9CCC(=O)NC9=O)noc8c7C6)CC5)cc4)n3)C2)C1=O (stereo partly shown) [Compound 89] | < 0.31 | > 90 |  | IC50 [1]: 20 nM; clearance ([4]; iv, 1 mg/kg, Mouse i.v. 1 mpk): 1.72 mL/min/kg; half-life ([4]; iv, 1 mg/kg, Mouse i.v. 1 mpk): 2.8 h; AUC ([4]; iv, 1 mg/kg, Mouse i.v. 1 mpk): 9700 ng·h/mL; half-life [4, 7]: 3 h; AUC [4, 7]: 23700 ng·h/mL; Cmax [4, 7]: 1880 ng/mL; F ([4]; Mouse i.g. 10 mpk): 24.5%
6 | CN1CCN([C@@H]2CCCN(c3cnc(C(N)=O)c(Nc4ccc(N5CCC(N6CCc7ccc8c(C9CCC(=O)NC9=O)noc8c7C6)CC5)cc4)n3)C2)C1=O (stereo partly shown) [Compound 34] | < 0.31 | 97 | 0.19 | DC50 ([3]; OCI-LY10 cells): < 0.098 nM
7 | CN1CCN([C@@H]2CCCN(c3cnc(C(N)=O)c(Nc4ccc(N5CCC(CN6CCc7c(ccc8c(C9CCC(=O)NC9=O)noc78)C6)CC5)cc4)n3)C2)C1=O (stereo partly shown) [Compound 28] | < 0.31 | > 90 | 0.29 | 
8 | CN1CCN([C@@H]2CCCN(c3cnc(C(N)=O)c(Nc4ccc(N5CCC(N6CCc7ccc8c(C9CCC(=O)NC9=O)noc8c7CC6)CC5)cc4)n3)C2)C1=O (stereo partly shown) [Compound 36] | < 0.31 | 95 | 0.024 | DC50 ([3]; OCI-LY10 cells): < 0.098 nM
9 | CN1CCN([C@@H]2CCCN(c3cnc(C(N)=O)c(Nc4ccc(N5CCC(CN6Cc7cc8onc(C9CCC(=O)NC9=O)c8cc7C6)CC5)cc4)n3)C2)C1=O (stereo partly shown) [Compound 29] | < 0.31 | > 90 | 0.35 | 
10 | CN1CCN([C@@H]2CCCN(c3cnc(C(N)=O)c(Nc4ccc(N5CCC(CN6CCc7ccc8c(C9CCC(=O)NC9=O)noc8c7C6)CC5)cc4)n3)C2)C1=O (stereo partly shown) [Compound 26] | < 0.31 | > 90 | 0.26 | 
11 | CN1CCN([C@@H]2CCCN(c3cnc(C(N)=O)c(Nc4ccc5c(c4)CN(C4CN(CC6Cc7ccc8c(C9CCC(=O)NC9=O)noc8c7C6)C4)C5)n3)C2)C1=O (stereo partly shown) [Compound 47] |  |  |  | IC50 [5]: 0.62 nM; BTK degradation in OCI-LY10 cells Dmax ([3]; OCI-LY10 cells): >90%
12 | CN1CCN([C@@H]2CCCN(c3cnc(C(N)=O)c(Nc4ccc(N5CCC(N6Cc7ccc8c(C9CCC(=O)NC9=O)noc8c7C6)CC5)cc4)n3)C2)C1=O (stereo partly shown) [Compound 30] | < 0.31 |  |  | IC50 [5]: 0.44 nM; Dmax ([3]; OCI-LY10 cells): > 90%
13 | CN1CCN([C@@H]2CCCN(c3cnc(C(N)=O)c(Nc4ccc(N5CCC(CN6Cc7ccc8c(C9CCC(=O)NC9=O)noc8c7C6)CC5)cc4)n3)C2)C1=O (stereo partly shown) [Compound 24] | < 0.31 | > 90 | 0.5 | 
14 | CN1CCN([C@@H]2CCCN(c3cnc(C(N)=O)c(Nc4ccc5c(c4)CCN(CC4Cc6ccc7c(C8CCC(=O)NC8=O)noc7c6C4)C5)n3)C2)C1=O (stereo partly shown) [Compound 41] | < 0.31 |  |  | IC50 [5]: 0.34 nM; BTK degradation in OCI-LY10 cells Dmax ([3]; OCI-LY10 cells): >90%
15 | CN1CCN([C@@H]2CCCN(c3cnc(C(N)=O)c(Nc4ccc5c(c4)CN(C4CN(CC6Cc7ccc8c(C9CCC(=O)NC9=O)noc8c7C6)C4)C5)n3)C2)C1=O (stereo partly shown) [Compound 46] |  | > 90 | 0.66 | 
16 | NC(=O)c1ncc(N2CCCCC2)nc1Nc1ccc(C2CCN(C[C@@H]3CCC(n4ccc5c6c(C7CCC(=O)NC7=O)noc6ccc54)C3)CC2)cc1 (stereo partly shown) [Compound 97] |  | > 90 | 0.78 | 
17 | CN1CCN([C@@H]2CCCN(c3cnc(C(N)=O)c(Nc4ccc5c(c4)CCN(CC4Cc6ccc7c(C8CCC(=O)NC8=O)noc7c6C4)C5)n3)C2)C1=O (stereo partly shown) [Compound 40] |  | > 90 | 0.51 | 
18 | CN1CCN([C@@H]2CCCN(c3cnc(C(N)=O)c(Nc4ccc5c(c4)CN(CC4Cc6ccc7c(C8CCC(=O)NC8=O)noc7c6C4)C5)n3)C2)C1=O (stereo partly shown) [Compound 44] |  | > 90 | 0.56 | 
